From patent US7183314B1, “Compound for treatment of anxiety and methods of preparation and use thereof” (Naturon Limited, priority 2000, dated 2007)

Key:
[1] = tested on: Male ICR mice; assay: Elevated plus-maze; type: in vivo; conditions: for Total (total number of arm entries): 5 minute test
Method: (§1) Male ICR mice weighing 18–23 g were used. They were housed in groups of four or five with free access to food and water and maintained on a 11 hour light: 13 hour dark cycle. All of the experimental groups, except acute lethal activity test (10 mice of either sex) have 16 animals per group.
(§2) For the chronic test, mice received 5 days pretreatment before the test. Flumazenil (Ro15-1788) was administrated intraperitoneally (IP) 15 minutes before testing in an injection volume of 12.5 ml/kg.
The elevated plus-maze was made of wood and consisted of two open arms (25×5 cm) and two opposite arms enclosed by 20 cm high walls. The arms extended from a central platform (5×5 cm). The plus-maze was elevated to a height of 40 cm. The maze was put inside a box 30×30×50 cm. […] The number of entries into and the time spent on the open and closed arms were counted. The total number of arm entries provided a measure of general activity, and anxiety reduces the number of such entries. At the end of the test, the number of entries into open arms was expressed as a percentage of the total number of arm entries. The time spent on the open arms was also expressed as a percentage of time spent on both the open and closed arms. Testing took place between 8 A.M. and 12 P.M. Mice were randomly allocated to different test groups, and tested in a randomized order of drug treatment in a room lit by dim light. After each trial, the floor of the apparatus was wiped and dried thoroughly with tissue to remove traces of the previous path.

[2] = tested on: Male ICR mice; assay: Locomotor activity test; type: in vivo; conditions: oral; for Locomotor Activity Score: 5 minute period
Method: as §1, §2
A ZIL-2 apparatus (Beijing Institute of Materia Medica) with dimensions 60×60×12 cm was used. It consists of four circular plastic boxes with diameter 25 cm and each has 6 equally distributed infrared photocells. The locomotor activity was counted automatically during a 5 minute period of test. An increase in the number of transitions reflects an increased locomotor activity.

[3] = tested on: Male ICR mice; assay: Holeboard test; type: in vivo; conditions: oral; for Head-dip Number / Head-dip Time: 5 minutes
Method: as §1, §2
The holeboard was a wooden box, 60×60×30 cm, with four holes of 3 cm diameter equally spaced in the floor. Mice were placed in the center of the holeboard and the number of head-dips, the time spent head-dipping were counted during 5 minutes (File, S. E., and Pellow, S., Br J Pharmacol 86: 729–735, 1985). Mice were allocated to different test groups randomly, and tested in an randomized order of drug treatment between 8 A.M. and 12 P.M. in a room lit by dim light. After each trial, the floor of the apparatus was wiped and dried thoroughly with tissue to remove traces of the previous path. An increase in the number and time spent head-dipping in this test are indicative of a greater exploratory activity. Conversely, a decrease in any of these parameters compared to controls is symptomatic of sedated behavior (Nolan, N. A., and Parkes, M. W., Psychopharmacol 29: 277–288, 1973; File, S. E., and Wardill, A. G., Psychopharmacol 44: 53–59, 1975; File, S. E., and Pellow, S., Psychopharmacol 88:1–11, 1986).

[4] = Acute lethal activity test; conditions: both sexes, ICR, mouse, in vivo; in mice
Method: as §1

[5] = tested on: BZD-S of the GABAA-receptor; conditions: as variously reported; cited from earlier work
[6] = tested on: Male ICR mice; assay: Horizontal wire test; type: in vivo; conditions: up to 30 mg/kg, 1 hour after oral administration, FIG. 5
Method: as §1, §2
Mice were lifted by the tail and allowed to grasp a horizontally strung wire (1 mm diameter, 15 cm long and placed 20 cm above the table) with their forepaws and released (Bonetti, E. P., et al., Psychopharmacol 78: 8–18, 1982). […] After two trials performed at 5 minute intervals, the test took place. A myorelaxant drug impairs the capacity of the mice to grasp the wire. Such muscle relaxation is commonly associated with sedation.

[7] = Acute, 1 hour before test, 1 mg/kg
[8] = Chronic (5 days pretreatment), 1 mg/kg
[9] = Acute, 1 hour before test, 3.75 mg/kg
[10] = Acute, 1 hour before test, 7.5 mg/kg
[11] = Acute, 1 hour before test, 15 mg/kg
[12] = Acute, 1 hour before test, 30 mg/kg
[13] = Chronic (5 days pretreatment), 3.75 mg/kg
[14] = Chronic (5 days pretreatment), 7.5 mg/kg
[15] = Chronic (5 days pretreatment), 15 mg/kg
[16] = Chronic (5 days pretreatment), 30 mg/kg

CN1C(=O)CN=C(c2ccccc2)c2cc(Cl)ccc21 [diazepam, reference compound]
Total (total number of arm entries) ([1]; Acute, oral, 1 hour before test, 1 mg/kg): 45.13 ± 2.31
Total (total number of arm entries) ([1]; Chronic (5 days pretreatment), oral, 1 mg/kg): 29.38 ± 2.67
Locomotor Activity Score [2, 7]: 225.29 ± 15.80
Locomotor Activity Score [2, 8]: 195.25 ± 13.03
Head-dip Number [3, 7]: 28.88 ± 2.16
Head-dip Time [3, 7]: 37.00 ± 0.79
Head-dip Number [3, 8]: 31.94 ± 3.57
Head-dip Time [3, 8]: 36.50 ± 3.59

COc1c(O)cc(O)c2c(=O)cc(-c3ccccc3)oc12 [wogonin]
Anxiolytic effects: open arm entries (acute), % time spent in open arms (acute), % open arm entries (chronic) ([1]; 7.5, 15 or 30 mg/kg, oral, mice, FIG. 3): significant anxiolytic effects
Total (total number of arm entries) ([1]; Acute, oral, 1 hour before test, 3.75 mg/kg): 34.56 ± 0.97
Total (total number of arm entries) ([1]; Acute, oral, 1 hour before test, 7.5 mg/kg): 45.56 ± 1.71
Total (total number of arm entries) ([1]; Acute, oral, 1 hour before test, 15 mg/kg): 43.50 ± 1.90
Total (total number of arm entries) ([1]; Acute, oral, 1 hour before test, 30 mg/kg): 47.00 ± 1.93
Total (total number of arm entries) ([1]; Chronic (5 days pretreatment), oral, 3.75 mg/kg): 27.56 ± 1.90
Total (total number of arm entries) ([1]; Chronic (5 days pretreatment), oral, 7.5 mg/kg): 31.75 ± 2.07
Total (total number of arm entries) ([1]; Chronic (5 days pretreatment), oral, 15 mg/kg): 31.56 ± 2.13
Total (total number of arm entries) ([1]; Chronic (5 days pretreatment), oral, 30 mg/kg): 31.31 ± 1.77
Anxiolytic effect of wogonin after treatment with Flumazenil Ro15-1788 ([1]; Flumazenil Ro15-1788 2.5 mg/kg IP 15 minutes before testing, mice, FIG. 4): completely abolished
LD50 [4]: ~4000 mg/kg
Binding affinity to the BZD-S of the GABAA-receptor [5]: weak or moderate
Locomotor Activity Score [2, 9]: 189.44 ± 6.54
Locomotor Activity Score [2, 10]: 205.63 ± 13.11
Locomotor Activity Score [2, 11]: 207.38 ± 10.12
Locomotor Activity Score [2, 12]: 193.50 ± 6.39
Locomotor Activity Score [2, 13]: 149.75 ± 6.55
Locomotor Activity Score [2, 14]: 170.56 ± 12.00
Locomotor Activity Score [2, 15]: 172.75 ± 6.25
Locomotor Activity Score [2, 16]: 184.56 ± 7.88
Sedative effects (change in motor activity) ([2]; up to 30 mg/kg body weight, mice): did not induce any sedative effects
Head-dip Number [3, 9]: 23.88 ± 1.08
Head-dip Time [3, 9]: 27.00 ± 1.10
Head-dip Number [3, 10]: 31.06 ± 1.88
Head-dip Time [3, 10]: 36.38 ± 1.93
Head-dip Number [3, 11]: 37.00 ± 1.94
Head-dip Time [3, 11]: 42.25 ± 2.54
Head-dip Number [3, 12]: 42.75 ± 3.58
Head-dip Time [3, 12]: 48.19 ± 3.92
Head-dip Number [3, 13]: 23.88 ± 1.86
Head-dip Time [3, 13]: 26.88 ± 1.95
Head-dip Number [3, 14]: 32.31 ± 1.80
Head-dip Time [3, 14]: 38.00 ± 0.79
Head-dip Number [3, 15]: 32.81 ± 2.27
Head-dip Time [3, 15]: 37.38 ± 2.32
Head-dip Number [3, 16]: 30.13 ± 1.59
Head-dip Time [3, 16]: 35.88 ± 1.81
Sedative effect (holeboard) ([3]; up to 30 mg/kg, mice): did not induce a significant sedative effect
Myorelaxant effects [6]: devoid of myorelaxant effects
